Assay results taken from patent publication US20260258048A1, “LACTAM-CONTAINING IMIDAZOPYRIDAZINE IL-17 INHIBITOR COMPOUNDS” (Janssen Pharmaceutica NV, priority 2023, published 2026).

How the values were obtained:
[1] = system: IL-17A-induced G-CSF production in human normal keratinocyte (NHK); assay: NHK assay: IL-17A-induced G-CSF production in normal human keratinocytes; format: cell-based; settings: IL-17A 5 ng/mL, 24 h
In short: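 Adult keratinocytes at 3000-4000 cells/well; recombinant human IL-17A pre-incubated 1 h at rt with titrated compound, then added to cells (final 5 ng/mL IL-17A, 0.2% DMSO, 5% FBS) for 24 h at 37 °C. Supernatant G-CSF quantified by HTRF against a standard curve to give IC50; viability checked by CellTiter-Glo versus DMSO.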

[2] = target: IL-17A(FLAG-tagged): IL-17RA(His-tagged) (Homo sapiens, UniProt Q16552, K93Q); assay: IL-17A(FLAG-tagged): IL-17RA(His-tagged) binding disruption Eu-HTRF assay; settings: for potency increase in the HTRF IC50 when compared to its C-3 epimer: (S)-configuration on C-3 (cis) vs (R)-epimer (trans): Example 51 vs 52, Example 59 vs 60
In short: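 Compound (22-point, 2-fold series) was pre-incubated 1 h at rt with FLAG-IL-17A, added as a 2× solution (1 μM). A 2× mix of C-terminal 10×His IL-17RA, Eu-anti-FLAG donor and D2-anti-His acceptor in PBS/0.01% Triton X-100/200 mM KF was then added for 2 h at rt. The 665/615 nm ratio was fitted to one-site competition for IC50.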

[3] = class of the average IC50 where tested more than once
[4] = Homo sapiens, Keratinocyte, class of the average IC50 where tested more than once
[5] = Homo sapiens, Keratinocyte, value in brackets, Table 4

Sequence of UniProt Q16552 (Q16552 with tags, fused parts or gaps K93Q): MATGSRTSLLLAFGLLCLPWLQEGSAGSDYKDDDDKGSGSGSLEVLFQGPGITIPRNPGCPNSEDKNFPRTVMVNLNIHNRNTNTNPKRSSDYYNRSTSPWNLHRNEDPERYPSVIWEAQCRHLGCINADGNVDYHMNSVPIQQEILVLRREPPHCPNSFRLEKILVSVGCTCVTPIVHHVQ

| IC50 [2, 3] | potency increase in the HTRF IC50 when compared to its C-3 epimer [2] | IC50 ([2]; value in brackets, Table 4) | SMILES | IC50 [1, 3] | IC50 [1, 4] | IC50 [1, 5] |
| --- | --- | --- | --- | --- | --- | --- |
| 400 to 4000 nM |  |  | CC1(Cc2cnn3cc([C@@H](NC(=O)c4nonc4C4CC4)C4CCC(F)(F)CC4)nc3c2)CCNC1=O (single isomer, unassigned) [Example 54, 4-Cyclopropyl-N—((S)-(4,4-difluorocyclohexyl)(7-(((S*)-3-methyl-2-oxopyrrolidin-3-yl)methyl)imidazo[1,2-b]pyridazin-2-yl)methyl)-1,2,5-oxadiazole-3-carboxamide] | > 4000 nM |  |  |
| 400 to 4000 nM |  |  | C[C@@]1(C(F)(F)F)CC(Cc2cnn3cc([C@@H](NC(=O)c4nonc4C4CC4)C4CCC(F)(F)CC4)nc3c2)C(=O)N1 (single isomer, unassigned) [Example 56, 4-Cyclopropyl-N—((S)-(4,4-difluorocyclohexyl)(7-(((3R*,5S)-5-methyl-2-oxo-5-(trifluoromethyl)pyrrolidin-3-yl)methyl)imidazo[1,2-b]pyridazin-2-yl)methyl)-1,2,5-oxadiazole-3-carboxamide] | 400 to 4000 nM |  |  |
| < 400 nM |  |  | CC(C)(CC[C@H](NC(=O)c1nonc1C1CC1)c1cn2ncc(CC3C[C@@](C)(C(F)(F)F)NC3=O)cc2n1)C(F)(F)F (single isomer, unassigned) [Example 58, 4-Cyclopropyl-N—((S)-5,5,5-trifluoro-4,4-dimethyl-1-(7-(((3R*,5S)-5-methyl-2-oxo-5-(trifluoromethyl)pyrrolidin-3-yl)methyl)imidazo[1,2-b]pyridazin-2-yl)pentyl)-1,2,5-oxadiazole-3-carboxamide] | 400 to 4000 nM |  |  |
| > 4000 nM |  |  | O=C(N[C@H](c1cn2ncc([C@@H](O)[C@@H]3C[C@H](C(F)(F)F)NC3=O)cc2n1)C1CCC(F)(F)CC1)c1nonc1C1CC1 (single isomer, unassigned) [Example 76] |  | 400 to 4000 nM |  |
| 400 to 4000 nM |  |  | C[C@@H](c1cnn2cc([C@@H](NC(=O)c3nonc3C3CC3)C3CCC(F)(F)CC3)nc2c1)[C@@H]1C[C@@H](C(F)(F)F)NC1=O (single isomer, unassigned) [Example 80, 4-Cyclopropyl-N—((S)-(4,4-difluorocyclohexyl(7-((R*)-1-((3S*,5S)-2-oxo-5-(trifluoromethyl)pyrrolidin-3-yl)ethyl)imidazo[1,2-b]pyridazin-2-yl)methyl)-1,2,5-oxadiazole-3-carboxamide] |  | 400 to 4000 nM |  |
| < 400 nM |  |  | C[C@]1(Cc2cnn3cc([C@@H](NC(=O)c4nonc4C4CC4)C4CCC(F)(F)CC4)nc3c2)C[C@@H](C(F)(F)F)NC1=O (single isomer, unassigned) [Example 97] |  | < 400 nM |  |
| < 400 nM |  |  | Cc1nonc1C(=O)N[C@H](c1cn2ncc(CC3(CC#N)C[C@@H](C(F)(F)F)NC3=O)cc2n1)C1CCC(F)(F)CC1 (single isomer, unassigned) [Example 103, N—((S)-(7-(((3S*,5S)-3-(Cyanomethyl)-2-oxo-5-(trifluoromethyl)pyrrolidin-3-yl)methyl)imidazo[1,2-b]pyridazin-2-yl)(4,4-difluorocyclohexyl)methyl)-4-methyl-1,2,5-oxadiazole-3-carboxamide] |  | < 400 nM |  |
| < 400 nM |  |  | N#CCC1(Cc2cnn3cc([C@@H](NC(=O)c4nonc4C4CC4)C4CCC(F)(F)CC4)nc3c2)C[C@@H](C(F)(F)F)NC1=O (single isomer, unassigned) [Example 104, N—((S)-(7-(((3S*,5S)-3-(Cyanomethyl)-2-oxo-5-(trifluoromethyl)pyrrolidin-3-yl)methyl)imidazo[1,2-b]pyridazin-2-yl)(4,4-difluorocyclohexyl)methyl)-4-cyclopropyl-1,2,5-oxadiazole-3-carboxamide] |  | < 400 nM |  |
| < 400 nM |  |  | Cc1nonc1C(=O)N[C@H](c1cn2ncc(CC3(CN(C)C)C[C@@H](C(F)(F)F)NC3=O)cc2n1)C1CCC(F)(F)CC1 (single isomer, unassigned) [Example 105, N—((S)-(4,4-Difluorocyclohexyl)(7-(((3S*,5S)-3-((dimethylamino)methyl)-2-oxo-5-(trifluoromethyl)pyrrolidin-3-yl)methyl)imidazo[1,2-b]pyridazin-2-yl)methyl)-4-methyl-1,2,5-oxadiazole-3-carboxamide] |  | < 400 nM |  |
| < 400 nM |  |  | O=C(N[C@H](c1cn2ncc(C[C@@]3(O)C[C@@H](C(F)(F)F)NC3=O)cc2n1)C1CCC(F)(F)CC1)c1nonc1C1CC1 [Example 36] |  | < 400 nM |  |
| < 400 nM | more than 100 fold | 150 nM | CC(C)n1nccc1C(=O)N[C@H](c1cn2ncc(C[C@H]3C[C@@H](C(F)(F)F)NC3=O)cc2n1)C1CCC(F)(F)CC1 [Example 51, N—((S)-(4,4-Difluorocyclohexyl)(7-(((3S,5S)-2-oxo-5-(trifluoromethyl)pyrrolidin-3-yl)methyl)imidazo[1,2-b]pyridazin-2-yl)methyl)-1-isopropyl-1H-pyrazole-5-carboxamide] |  | < 400 nM | 50 nM |
| 400 to 4000 nM |  | 2450 nM | CC(C)n1nccc1C(=O)N[C@H](c1cn2ncc(C[C@@H]3C[C@@H](C(F)(F)F)NC3=O)cc2n1)C1CCC(F)(F)CC1 [Example 52, N—((S)-(4,4-Difluorocyclohexyl)(7-(((3R,5S)-2-oxo-5-(trifluoromethyl)pyrrolidin-3-yl)methyl)imidazo[1,2-b]pyridazin-2-yl)methyl)-1-isopropyl-1H-pyrazole-5-carboxamide] |  | 400 to 4000 nM | 2830 nM |
| < 400 nM | more than 80 fold | 14 nM | O=C(N[C@H](c1cn2ncc(C[C@H]3C[C@@H](C(F)(F)F)NC3=O)cc2n1)C1CCC(F)(F)CC1)c1nonc1C1CC1 [Example 59, 4-Cyclopropyl-N—[(S)-(4,4-difluorocyclohexyl)-[7-[[(3S,5S)-2-oxo-5-(trifluoromethyl)pyrrolidin-3-yl]methyl]imidazo[1,2-b]pyridazin-2-yl]methyl]-1,2,5-oxadiazole-3-carboxamide] |  | < 400 nM | 7.8 nM |
| 400 to 4000 nM |  | 1140 nM | O=C(N[C@H](c1cn2ncc(C[C@@H]3C[C@@H](C(F)(F)F)NC3=O)cc2n1)C1CCC(F)(F)CC1)c1nonc1C1CC1 [Example 60, 4-Cyclopropyl-N—[(S)-(4,4-difluorocyclohexyl)-[7-[[(3R,5S)-2-oxo-5-(trifluoromethyl)pyrrolidin-3-yl]methyl]imidazo[1,2-b]pyridazin-2-yl]methyl]-1,2,5-oxadiazole-3-carboxamide] |  | > 4000 nM | > 4000 nM |
| 400 to 4000 nM |  |  | O=C(N[C@H](c1cn2ncc(C(O)C3CC(C(F)(F)F)NC3=O)cc2n1)C1CCC(F)(F)CC1)c1nonc1C1CC1 (stereo partly drawn) [Example 61, 4-Cyclopropyl-N—[(S)-(4,4-difluorocyclohexyl)-[7-[hydroxy-[2-oxo-5-(trifluoromethyl)pyrrolidin-3-yl]methyl]imidazo[1,2-b]pyridazin-2-yl]methyl]-1,2,5-oxadiazole-3-carboxamide] |  | < 400 nM |  |
| 400 to 4000 nM |  |  | O=C(N[C@H](c1cn2ncc(CC3CC4(CC4)NC3=O)cc2n1)C1CCC(F)(F)CC1)c1nonc1C1CC1 (stereo partly drawn) [Example 62, 4-Cyclopropyl-N-((1S)-(4,4-difluorocyclohexyl)(7-((5-oxo-4-azaspiro[2.4]heptan-6-yl)methyl)imidazo[1,2-b]pyridazin-2-yl)methyl)-1,2,5-oxadiazole-3-carboxamide] |  | > 4000 nM |  |
| < 400 nM |  |  | O=C(N[C@H](c1cn2ncc([C@@H](O)[C@H]3C[C@@H](C(F)(F)F)NC3=O)cc2n1)C1CCC(F)(F)CC1)c1nonc1C1CC1 [Example 74] |  | < 400 nM |  |
| > 4000 nM |  |  | O=C(N[C@H](c1cn2ncc(CC3CC4(COC4)NC3=O)cc2n1)C1CCC(F)(F)CC1)c1nonc1C1CC1 (stereo partly drawn) [Example 98, 4-Cyclopropyl-N-((1S)-(4,4-difluorocyclohexyl)(7-((6-oxo-2-oxa-5-azaspiro[3.4]octan-7-yl)methyl)imidazo[1,2-b]pyridazin-2-yl)methyl)-1,2,5-oxadiazole-3-carboxamide] |  | > 4000 nM |  |
